Some results are limits rather than exact numbers.

This test has as its target T1, CA-IX (Homo sapiens, UniProt Q16790).
T1 construct: His tag (C); purchased R&D Systems Inc. 2188-CA; host or cells: mouse myeloma cell line NS0
As to the kind of experiment: CA-IX combinatorial library screening, competitive fluorescence-based assay with dansylamide (DNSA). In kind it is binding. The following applies: Table 2, Libraries 4-7, sample concentrations 100 nM and 1000 nM, DNSA 200 μM, screening at 1 μM; for inhibition at 1 µM: 1 h, read-out: In Vitro Binding Assay (Library (Screening)). On the procedure: General. CA-IX human recombinant enzyme was expressed with a C-terminal His tag in a mouse myeloma cell line, NS0 (R&D Systems Inc., catalog number 2188-CA). The human red blood cells were obtained from Research Blood Components, LLC. All absorbance measurements were performed on a SPECTRA MAX M2 plate reader at 25° C. The LC/MS analyses were performed on an Agilent 1100 series LC/MSD (SL) using a 30×2.1 mm Zorbax C8 column with a Phenomenex C18 pre-column. Compound detection was accomplished by electrospray mass spectroscopy in positive selected ion mode (LC/MS-SIM). The elution solvents were acetonitrile and water, contained 0.05% TFA. Nuclear magnetic resonance (NMR) spectra were obtained on a Bruker AMX 300 MHz spectrometer or a Varian 400. 19F NMR spectra were recorded on a Bruker AMX 282.35 MHz or a Varian 400 spectrometer. The mass spectra were recorded on an Agilent 1100 series LC/MSD with electrospray mass spectroscopic detection. Flash column chromatography was performed on Merck silica gel (40-63 μm) using the solvent system indicated. The radiochemical and chemical purities were analyzed by RP-HPLC.
General Combinatorial Library Screening Protocol for CA-IX
The CA-IX screening assay was employed for testing libraries derived from the various “anchor” molecules, using ethoxzolamide as a positive control. The assay was performed at a substrate (dansylamide, DNSA) concentration of 200 μM, and sample concentrations of 100 nM and 1000 nM, respectively. A modified competitive fluorescence-based assay (A. Jain, S. G. Huang, G. M. Whitesides, J. Am. Chem. Soc. 1994, 116, 5057) was used to measure CA-IX activity. The enzymatic assay was carried out in a 96-well plate. To the wells, deionized water, 40 μL of phosphate buffer (250 mM, pH 7.4), 2.4 μL of CA-IX (17 μM), and 2 μL or 20 μL of inhibitor (concentration of 100 nM or 1000 nM) were added to achieve a final volume of 180 μL. Reactions were initiated by adding 20 μL DNSA (200 μM) to each well and the plate was incubated at 25° C. for 1 hour. The fluorescence intensities from each well of the plate were then read at 460 nm using a plate reader with an excitation wavelength of 290 nm.

Turning to `NS(=O)(=O)c1ccc(-c2cn([C@@H](Cc3ccccc3)C(=O)N3CCN(c4ncccn4)CC3)nn2)cc1` [DHK-2-4], the inhibition at 1 µM was less than 40%.
With `NS(=O)(=O)c1ccc(-c2cn([C@@H](Cc3ccccc3)C(=O)NCc3ccc(-c4ccccn4)s3)nn2)cc1` [DHK-2-5], the inhibition at 1 µM was less than 40%.
For `NS(=O)(=O)c1ccc(-c2cn([C@@H](Cc3ccccc3)C(=O)N3CCC[C@@H]3CO)nn2)cc1` [DHK-2-6], the inhibition at 1 µM was less than 40%.
As for `NS(=O)(=O)c1ccc(-c2cn([C@@H](Cc3ccccc3)C(=O)N3CCN(c4ccccn4)CC3)nn2)cc1` [DHK-2-7], the inhibition at 1 µM was less than 40%.
Turning to `CCOC(=O)[C@@H](Cc1ccccc1)NC(=O)[C@H](Cc1ccccc1)n1cc(-c2ccc(S(N)(=O)=O)cc2)nn1` [DHK-2-8], the inhibition at 1 µM was less than 40%.
`CCOC(=O)[C@@H](NC(=O)[C@H](Cc1ccccc1)n1cc(-c2ccc(S(N)(=O)=O)cc2)nn1)C(C)C` [DHK-2-9]: the inhibition at 1 µM is less than 40%.
Turning to `COC(=O)[C@H](C)NC(=O)[C@H](Cc1ccccc1)n1cc(-c2ccc(S(N)(=O)=O)cc2)nn1` [DHK-2-10], the inhibition at 1 µM was less than 40%.
As to `NS(=O)(=O)c1ccc(-c2cn([C@@H](Cc3ccccc3)C(=O)NCc3ccccn3)nn2)cc1` [DHK-2-11], the inhibition at 1 µM was less than 40%.
In the case of `NS(=O)(=O)c1ccc(-c2cn([C@@H](Cc3ccccc3)C(=O)NC3CCCCC3)nn2)cc1` [DHK-2-12], the inhibition at 1 µM is less than 40%.
In the case of `NS(=O)(=O)c1ccc(-c2cn([C@@H](Cc3ccccc3)C(=O)NCC3CC3)nn2)cc1` [DHK-2-13], the inhibition at 1 µM is less than 40%.
Turning to `NS(=O)(=O)c1ccc(-c2cn([C@@H](Cc3ccccc3)C(=O)NCCCO)nn2)cc1` [DHK-2-14], the inhibition at 1 µM is less than 40%.
For the compound `Cc1onc(-c2ccccc2)c1CNC(=O)[C@H](Cc1ccccc1)n1cc(-c2ccc(S(N)(=O)=O)cc2)nn1` [DHK-2-15], the inhibition at 1 µM was less than 40%.
Consider `CCOC(=O)CCN(Cc1ccco1)C(=O)[C@H](Cc1ccccc1)n1cc(-c2ccc(S(N)(=O)=O)cc2)nn1` [DHK-2-16], for which the inhibition at 1 µM is less than 40%.
For the compound `CCOC(=O)C1CCN(C(=O)[C@H](Cc2ccccc2)n2cc(-c3ccc(S(N)(=O)=O)cc3)nn2)CC1` [DHK-2-17], the inhibition at 1 µM was less than 40%.
Turning to `NS(=O)(=O)c1ccc(-c2cn([C@@H](Cc3ccccc3)C(=O)N3CCC(CCO)CC3)nn2)cc1` [DHK-2-18], the inhibition at 1 µM was less than 40%.
`NS(=O)(=O)c1ccc(-c2cn([C@@H](Cc3ccccc3)C(=O)NC3c4ccccc4C[C@@H]3O)nn2)cc1` (some centres unmarked) [DHK-2-19]: the inhibition at 1 µM was less than 40%.
Turning to `NS(=O)(=O)c1ccc(-c2cn([C@@H](Cc3ccccc3)C(=O)NCC3COc4ccccc4O3)nn2)cc1` (some centres unmarked) [DHK-2-20], the inhibition at 1 µM is less than 40%.
Still for that read-out and setting: the value for `NS(=O)(=O)c1ccc(-c2cn([C@@H](Cc3ccccc3)C(=O)N3CCC(N4CCCC4)CC3)nn2)cc1` [DHK-2-21] was less than 40%; that for `Cn1c(CNC(=O)[C@H](Cc2ccccc2)n2cc(-c3ccc(S(N)(=O)=O)cc3)nn2)nc2ccccc21` [DHK-2-22] was less than 40%.
On to `NS(=O)(=O)c1ccc(-c2cn([C@@H](Cc3ccccc3)C(=O)NCCN3CCN(Cc4ccccc4)CC3)nn2)cc1` [DHK-2-23], for which the inhibition at 1 µM was less than 40%.
Regarding `CC(C)[C@@H](C(=O)NCc1ccc(C(F)(F)F)cc1)n1cc(COc2ccc3nc(S(N)(=O)=O)sc3c2)nn1` [DHK-2-24], the “In Vitro Binding Assay (Library Screening)” value (shortened to “In Vitro Binding Assay”) is “√ √”.
Regarding `CC(C)[C@@H](C(=O)NCc1ccc(F)cc1)n1cc(COc2ccc3nc(S(N)(=O)=O)sc3c2)nn1` [DHK-2-25], the inhibition at 1 µM is less than 40%.
In the case of `CC(C)[C@@H](C(=O)N(C)Cc1ccccc1)n1cc(COc2ccc3nc(S(N)(=O)=O)sc3c2)nn1` [DHK-2-26], the inhibition at 1 µM is less than 40%.
The same measure, in the same setting: the value for `CC(C)[C@@H](C(=O)NCCSCc1ccc(CN(C)C)o1)n1cc(COc2ccc3nc(S(N)(=O)=O)sc3c2)nn1` [DHK-2-27] was less than 40%; that for `CC(C)[C@@H](C(=O)N1CCN(c2ncccn2)CC1)n1cc(COc2ccc3nc(S(N)(=O)=O)sc3c2)nn1` [DHK-2-28] was less than 40%.
On the same count and under the same terms, the same measure for `CC(C)[C@@H](C(=O)NCc1ccc(-c2ccccn2)s1)n1cc(COc2ccc3nc(S(N)(=O)=O)sc3c2)nn1` [DHK-2-29]: less than 40%.
For `CC(C)[C@@H](C(=O)N1CCC[C@@H]1CO)n1cc(COc2ccc3nc(S(N)(=O)=O)sc3c2)nn1` [DHK-2-30], the inhibition at 1 µM was less than 40%.
Consider `CC(C)[C@@H](C(=O)N1CCN(c2ccccn2)CC1)n1cc(COc2ccc3nc(S(N)(=O)=O)sc3c2)nn1` [DHK-2-31], for which the inhibition at 1 µM was less than 40%.
In the case of `CCOC(=O)C(Cc1ccccc1)NC(=O)[C@H](C(C)C)n1cc(COc2ccc3nc(S(N)(=O)=O)sc3c2)nn1` (some centres unmarked) [DHK-2-32], the inhibition at 1 µM is less than 40%.
For the compound `CCOC(=O)C(NC(=O)[C@H](C(C)C)n1cc(COc2ccc3nc(S(N)(=O)=O)sc3c2)nn1)C(C)C` (some centres unmarked) [DHK-2-33], the inhibition at 1 µM was less than 40%.
The same measure, in the same setting: the same measure for `COC(=O)C(C)NC(=O)[C@H](C(C)C)n1cc(COc2ccc3nc(S(N)(=O)=O)sc3c2)nn1` (some centres unmarked) [DHK-2-34]: less than 40%; for `CC(C)[C@@H](C(=O)NCc1ccccn1)n1cc(COc2ccc3nc(S(N)(=O)=O)sc3c2)nn1` [DHK-2-35]: less than 40%; for `CC(C)[C@@H](C(=O)NC1CCCCC1)n1cc(COc2ccc3nc(S(N)(=O)=O)sc3c2)nn1` [DHK-2-36]: less than 40%.
The same measure, in the same setting: the value for `CC(C)[C@@H](C(=O)NCC1CC1)n1cc(COc2ccc3nc(S(N)(=O)=O)sc3c2)nn1` [DHK-2-37] was less than 40%.
Same read-out and setting: the same measure for `CC(C)[C@@H](C(=O)NCCCO)n1cc(COc2ccc3nc(S(N)(=O)=O)sc3c2)nn1` [DHK-2-38]: less than 40%.
Consider `Cc1onc(-c2ccccc2)c1CNC(=O)[C@H](C(C)C)n1cc(COc2ccc3nc(S(N)(=O)=O)sc3c2)nn1` [DHK-2-39], for which the inhibition at 1 µM is less than 40%.
Turning to `CCOC(=O)C1CCN(C(=O)[C@H](C(C)C)n2cc(COc3ccc4nc(S(N)(=O)=O)sc4c3)nn2)CC1` [DHK-2-41], the “In Vitro Binding Assay” value was “√”.
`CC(C)[C@@H](C(=O)N1CCN(CCO)CC1)n1cc(COc2ccc3nc(S(N)(=O)=O)sc3c2)nn1` [DHK-2-42]: the inhibition at 1 µM is less than 40%.
The same measure, in the same setting: the value for `CC(C)[C@@H](C(=O)N[C@@H]1c2ccccc2C[C@@H]1O)n1cc(COc2ccc3nc(S(N)(=O)=O)sc3c2)nn1` [DHK-2-43] was less than 40%.
`CC(C)[C@@H](C(=O)NCC1COc2ccccc2O1)n1cc(COc2ccc3nc(S(N)(=O)=O)sc3c2)nn1` (some centres unmarked) [DHK-2-44]: the “In Vitro Binding Assay” value is recorded as “√”.
In the case of `CC(C)[C@@H](C(=O)N1CCC(N2CCCC2)CC1)n1cc(COc2ccc3nc(S(N)(=O)=O)sc3c2)nn1` [DHK-2-45], the inhibition at 1 µM is less than 40%.
With `CC(C)[C@@H](C(=O)NCCN1CCN(Cc2ccccc2)CC1)n1cc(COc2ccc3nc(S(N)(=O)=O)sc3c2)nn1` [DHK-2-47], the inhibition at 1 µM was less than 40%.
Take `NS(=O)(=O)c1nc2ccc(OCc3cn([C@@H](Cc4ccccc4)C(=O)NCc4ccc(C(F)(F)F)cc4)nn3)cc2s1` [DHK-2-51]: the “In Vitro Binding Assay” value was “√”.
With `NS(=O)(=O)c1nc2ccc(OCc3cn([C@@H](Cc4ccccc4)C(=O)NCc4ccc(F)cc4)nn3)cc2s1` [DHK-2-52], the inhibition at 1 µM was less than 40%.
For `CN(Cc1ccccc1)C(=O)[C@H](Cc1ccccc1)n1cc(COc2ccc3nc(S(N)(=O)=O)sc3c2)nn1` [DHK-2-53], the inhibition at 1 µM is less than 40%.
As to `CN(C)Cc1ccc(CSCCNC(=O)[C@H](Cc2ccccc2)n2cc(COc3ccc4nc(S(N)(=O)=O)sc4c3)nn2)o1` [DHK-2-54], the inhibition at 1 µM was less than 40%.
On to `NS(=O)(=O)c1nc2ccc(OCc3cn([C@@H](Cc4ccccc4)C(=O)N4CCN(c5ncccn5)CC4)nn3)cc2s1` [DHK-2-55], for which the inhibition at 1 µM was less than 40%.
With `NS(=O)(=O)c1nc2ccc(OCc3cn([C@@H](Cc4ccccc4)C(=O)NCc4ccc(-c5ccccn5)s4)nn3)cc2s1` [DHK-2-56], the inhibition at 1 µM is less than 40%.
On to `NS(=O)(=O)c1nc2ccc(OCc3cn([C@@H](Cc4ccccc4)C(=O)N4CCC[C@@H]4CO)nn3)cc2s1` [DHK-2-57], for which the inhibition at 1 µM was less than 40%.
Turning to `NS(=O)(=O)c1nc2ccc(OCc3cn([C@@H](Cc4ccccc4)C(=O)N4CCN(c5ccccn5)CC4)nn3)cc2s1` [DHK-2-58], the inhibition at 1 µM is less than 40%.

The record behind these values is patent US7829063B2, “Development of molecular imaging probes for carbonic anhydrase-IX using click chemistry” (Siemens Medical Solutions USA, Inc., priority 2007, dated 2010).
